Read-outs that look alike come from different tables or passages of the source.
What was measured:
[1] = tested on: MCF7/FasR breast cancer cells; assay: MTT cell viability, 72 h, dark or 458 nm irradiation; assay type: cell-based, human; conditions: for GI50: 72 h, MTT; for PI MCF7: GI50 non-irradiated / GI50 irradiated; for SI vs MC3T3, MCF7 Blue / SI vs NIH, MCF7 Blue: blue light; for SI vs MC3T3, MCF7 Blue / SI vs MC3T3, MCF7 Dark: GI50 MC3T3 / GI50 MCF7; for SI vs NIH, MCF7 Blue / SI vs NIH, MCF7 Dark: GI50 NIH-3T3 / GI50 MCF7
Method: (§1) For all biology experiments, the compounds were solubilized in DMSO to reach a final fixed concentration equal to 0.1% v/v to avoid cytotoxicity caused by DMSO [89]. The results are normalized to controls (0.1% v/v DMSO). Depending on the cell type, approximatively 1000 to 10,000 cells/cm^2 were seeded in 48-well plates for MTT, ATP and GSH assays and 60 mm Petri dishes for Western blots. Cells were allowed to attach overnight and then incubated for 4 h with the different complexes (in the dark), then irradiated for 10 min, followed by an incubation in the dark up to 72 h.
(§2) Irradiation was conducted using an in-house device: a series of blue light LEDs selected according to the absorption spectra of the compounds at a 458 nm wavelength with an emitted power of 9.6 watts. The absorbed energy, or irradiance, was measured at 458 nm with a Thorlabs Optical Power Meter PM100A at 5 and 10 cm distance between the cell layer and the light source and expressed as mW/cm^2.
(§3) A tetrazolium-based MTT reagent (3-(4,5-dimethylthiazol-2-yl)-2,5-diphenyltetrazolium bromide) was used to determine cell viability, as previously described. After 72 h of treatment at 37 °C and 5% CO2, cells were incubated with 25 μL MTT solution (5 mg/mL; Sigma-Aldrich) for 4 h. After solubilization with 500 μL of lysis buffer (DMSO), formazan was quantified by spectrophotometry with a microplate reader at 570 nm absorbance (ClarioSTAR, BMG LabTech, Champigny-sur-Marne, France). GI50 values corresponding to the concentration that caused 50% inhibition of cell proliferation were calculated from dose–response curves obtained by nonlinear regression analysis. All results were calculated from data obtained in at least three independent experiments.

A549 lung cancer cells = assay: as above; assay type: cell-based, human; conditions: for GI50: 72 h, MTT; for PI A549: GI50 non-irradiated / GI50 irradiated; for SI vs MC3T3, A549 Blue / SI vs NIH, A549 Blue: blue light; for SI vs MC3T3, A549 Blue / SI vs MC3T3, A549 Dark: GI50 MC3T3 / GI50 A549; for SI vs NIH, A549 Blue / SI vs NIH, A549 Dark: GI50 NIH-3T3 / GI50 A549
Method: as §1, §2, §3

HeLa cervix cancer cells = assay: as above; assay type: cell-based, human; conditions: for GI50: 72 h, MTT; for PI HeLa: GI50 non-irradiated / GI50 irradiated; for SI vs MC3T3, HeLa Blue / SI vs NIH, HeLa Blue: blue light; for SI vs MC3T3, HeLa Blue / SI vs MC3T3, HeLa Dark: GI50 MC3T3 / GI50 HeLa; for SI vs NIH, HeLa Blue / SI vs NIH, HeLa Dark: GI50 NIH-3T3 / GI50 HeLa
Method: as §1, §2, §3

T24 bladder cancer cells = assay: as above; assay type: cell-based, human; conditions: for GI50: 72 h, MTT; for PI T24: GI50 non-irradiated / GI50 irradiated; for SI vs MC3T3, T24 Blue / SI vs NIH, T24 Blue: blue light; for SI vs MC3T3, T24 Blue / SI vs MC3T3, T24 Dark: GI50 MC3T3 / GI50 T24; for SI vs NIH, T24 Blue / SI vs NIH, T24 Dark: GI50 NIH-3T3 / GI50 T24
Method: as §1, §2, §3

[2] = tested on: PC-3 prostate cancer cells; assay: as above; assay type: cell-based, human; conditions: for GI50: 72 h, MTT; for PI PC-3: GI50 non-irradiated / GI50 irradiated; for SI vs MC3T3, PC-3 Blue / SI vs NIH, PC-3 Blue: blue light; for SI vs MC3T3, PC-3 Blue / SI vs MC3T3, PC-3 Dark: GI50 MC3T3 / GI50 PC-3; for SI vs NIH, PC-3 Blue / SI vs NIH, PC-3 Dark: GI50 NIH-3T3 / GI50 PC-3
Method: as §1, §2, §3

PC-3 = assay: MTT cytotoxicity, 48 h; assay type: cell-based, human; conditions: for GI50: MTT; for SI (PC-3): NIH3T3 vs PC-3
Method: (§4) The in vitro cytotoxicity of iridium(III) complexes 4a–4g was first evaluated against cancer cell lines PC-3 (human prostate) and T24 (human bladder) and the non-cancerous NIH-3T3 cell line (murine fibroblasts) using colorimetric MTT tests after 48 h of treatment. The dimeric iridium precursor [IrCl(ppy)2]2 was used as reference and the results are summarized in Table S1 (Supplementary Materials) in the supporting information file. […] The complexes were also evaluated for their cytotoxicity towards healthy NIH-3T3 cells, giving access to the selectivity index (SI). […] No linear correlation between lipophilicity and anti-cancer activity was found for the iridium(III) complexes 4a–4g. For the following biological studies, we focused on the C1 series.
(§5) Table S1. Cytotoxic activity of iridium(III) NHC complexes 4a−4g expressed as GI50 (μM) values towards selected cancer and normal cell lines as determined by MTT assay (48 h).a Complex PC-3 T24 NIH3T3 SI (PC-3) SI (T24) […]
(§6) a GI50 values correspond to the concentration of complexes causing 50 % inhibition of cell growth.
(§7) Data were obtained from three independent experiments.
(§8) The cytotoxic effects of the NHC precursors, the imidazolium salts, which represents the potential hydrolysis and/or degradation products of the complexes, have been published before [SI-1, SI-2]. […]

T24 = assay: MTT cytotoxicity, 48 h; assay type: cell-based, human; conditions: for GI50: MTT; for SI (T24): NIH3T3 vs T24
Method: as §4, §5, §6, §7, §8

[3] = Octanol–water partition coefficient, shake-flask method; assay type: physicochemical; conditions: n-octanol/water, UV absorbance 260 nm
Method: Lipophilicities of all complexes have been measured by the classical shake-flask method, using UV absorption. The Log p values range from -0.063 to 0.861 in increasing order –0.063 (4a), 0.035 (4d), 0.519 (4f), 0.581 (4c), 0.842 (4b), 0.847 (4e) and 0.861 (4g).
The octanol–water partition coefficients (P) of 4a to 4g were determined using a shake-flask method. Water (100 mL, distilled after milli-Q purification) and n-octanol (100 mL, Sigma-Aldrich, St. Louis, MO, USA, ACS spectrophotometric grade, ≥99%) were shaken together for 24 h to allow saturation of both phases. Stock solutions of the […] compounds (50 μM) were prepared in the aqueous phase and aliquots (1 mL) of each of these stock solutions were then added to an equal volume of the n-octanol phase. The resultant biphasic solutions were mixed for 1 h and then centrifuged (3000× g, 5 min) (Eppendorf Centrifuges 5415R and 5804R) to separate the phases. The concentrations of the complexes in the organic and aqueous phases were then determined using UV absorbance spectroscopy (260 nm). Log P was defined as the logarithm of the ratio of the concentrations of the studied complex in the organic and aqueous phases (Log P = Log {[Ir(org)]/[Ir(aq)]}; values reported are the means of at least two separate determinations).

NIH3T3 = assay: MTT cytotoxicity, 48 h; assay type: cell-based, murine
Method: as §4, §5, §6, §7, §8

[4] = 458 nm irradiation 10 min, read-out: GI50 MCF7 Blue
[5] = 458 nm irradiation 10 min, read-out: GI50 A549 Blue
[6] = 458 nm irradiation 10 min, read-out: GI50 HeLa Blue
[7] = 458 nm irradiation 10 min, read-out: GI50 T24 Blue
[8] = 458 nm irradiation 10 min, read-out: GI50 PC-3 Blue

Structure (SMILES): CC(C)[n+]1ccn2[c]1[Ir-3]13([c]4ccccc4-c4cccc[n+]41)([c]1ccccc1-c1cccc[n+]13)[c]1n(cc[n+]1C(C)C)C2.F[P-](F)(F)(F)(F)F [Complex 4a]
- GI50 [1, 4]: 50 nM
- PI MCF7 [1]: 4.3
- SI vs MC3T3, MCF7 Blue [1]: 34.8
- SI vs NIH, MCF7 Blue [1]: 55.8
- GI50 ([1]; dark, read-out: GI50 MCF7 Dark): 213 nM
- SI vs MC3T3, MCF7 Dark ([1]; dark): 11.5
- SI vs NIH, MCF7 Dark ([1]; dark): 17.2
- GI50 (A549 lung cancer cells; [5]): 107 nM
- PI A549 (A549 lung cancer cells): 3.3
- SI vs MC3T3, A549 Blue (A549 lung cancer cells): 16.3
- SI vs NIH, A549 Blue (A549 lung cancer cells): 26.1
- GI50 (A549 lung cancer cells; dark, read-out: GI50 A549 Dark): 355 nM
- SI vs MC3T3, A549 Dark (A549 lung cancer cells; dark): 6.9
- SI vs NIH, A549 Dark (A549 lung cancer cells; dark): 10.3
- GI50 (HeLa cervix cancer cells; [6]): 525 nM
- PI HeLa (HeLa cervix cancer cells): 2.5
- SI vs MC3T3, HeLa Blue (HeLa cervix cancer cells): 3.3
- SI vs NIH, HeLa Blue (HeLa cervix cancer cells): 5.3
- GI50 (HeLa cervix cancer cells; dark, read-out: GI50 HeLa Dark): 1290 nM
- SI vs MC3T3, HeLa Dark (HeLa cervix cancer cells; dark): 1.9
- SI vs NIH, HeLa Dark (HeLa cervix cancer cells; dark): 2.8
- GI50 (T24 bladder cancer cells; [7]): 82 nM
- PI T24 (T24 bladder cancer cells): 3.5
- SI vs MC3T3, T24 Blue (T24 bladder cancer cells): 21.2
- SI vs NIH, T24 Blue (T24 bladder cancer cells): 34.0
- GI50 (T24 bladder cancer cells; dark, read-out: GI50 T24 Dark): 288 nM
- SI vs MC3T3, T24 Dark (T24 bladder cancer cells; dark): 8.5
- SI vs NIH, T24 Dark (T24 bladder cancer cells; dark): 12.7
- GI50 [2, 8]: 57 nM
- PI PC-3 [2]: 4.1
- SI vs MC3T3, PC-3 Blue [2]: 30.5
- SI vs NIH, PC-3 Blue [2]: 48.9
- GI50 ([2]; dark, read-out: GI50 PC-3 Dark): 233 nM
- SI vs MC3T3, PC-3 Dark ([2]; dark): 10.6
- SI vs NIH, PC-3 Dark ([2]; dark): 15.8
- GI50 (PC-3): 480 nM
- SI (PC-3) (PC-3): 6.9
- GI50 (T24): 310 nM
- SI (T24) (T24): 10.6
- Log P [3]: –0.063
- GI50 (NIH3T3): 3.3 µM

Structure (SMILES): CC(C)C[n+]1ccn2[c]1[Ir-3]13([c]4ccccc4-c4cccc[n+]41)([c]1ccccc1-c1cccc[n+]13)[c]1n(cc[n+]1CC(C)C)C2.F[P-](F)(F)(F)(F)F [Complex 4b]
- GI50 [1, 4]: 53 nM
- PI MCF7 [1]: 4.0
- SI vs MC3T3, MCF7 Blue [1]: 13.3
- SI vs NIH, MCF7 Blue [1]: 28.7
- GI50 ([1]; dark, read-out: GI50 MCF7 Dark): 211 nM
- SI vs MC3T3, MCF7 Dark ([1]; dark): 4.6
- SI vs NIH, MCF7 Dark ([1]; dark): 9.2
- GI50 (A549 lung cancer cells; [5]): 84 nM
- PI A549 (A549 lung cancer cells): 4.2
- SI vs MC3T3, A549 Blue (A549 lung cancer cells): 8.4
- SI vs NIH, A549 Blue (A549 lung cancer cells): 18.1
- GI50 (A549 lung cancer cells; dark, read-out: GI50 A549 Dark): 354 nM
- SI vs MC3T3, A549 Dark (A549 lung cancer cells; dark): 2.8
- SI vs NIH, A549 Dark (A549 lung cancer cells; dark): 5.5
- GI50 (HeLa cervix cancer cells; [6]): 294 nM
- PI HeLa (HeLa cervix cancer cells): 2.1
- SI vs MC3T3, HeLa Blue (HeLa cervix cancer cells): 2.4
- SI vs NIH, HeLa Blue (HeLa cervix cancer cells): 5.2
- GI50 (HeLa cervix cancer cells; dark, read-out: GI50 HeLa Dark): 625 nM
- SI vs MC3T3, HeLa Dark (HeLa cervix cancer cells; dark): 1.6
- SI vs NIH, HeLa Dark (HeLa cervix cancer cells; dark): 3.1
- GI50 (T24 bladder cancer cells; [7]): 90 nM
- PI T24 (T24 bladder cancer cells): 2.8
- SI vs MC3T3, T24 Blue (T24 bladder cancer cells): 7.7
- SI vs NIH, T24 Blue (T24 bladder cancer cells): 16.7
- GI50 (T24 bladder cancer cells; dark, read-out: GI50 T24 Dark): 259 nM
- SI vs MC3T3, T24 Dark (T24 bladder cancer cells; dark): 3.8
- SI vs NIH, T24 Dark (T24 bladder cancer cells; dark): 7.5
- GI50 [2, 8]: 71 nM
- PI PC-3 [2]: 3.6
- SI vs MC3T3, PC-3 Blue [2]: 9.9
- SI vs NIH, PC-3 Blue [2]: 21.4
- GI50 ([2]; dark, read-out: GI50 PC-3 Dark): 257 nM
- SI vs MC3T3, PC-3 Dark ([2]; dark): 3.8
- SI vs NIH, PC-3 Dark ([2]; dark): 7.6
- GI50 (PC-3): 510 nM
- SI (PC-3) (PC-3): 6.9
- GI50 (T24): 380 nM
- SI (T24) (T24): 9.2
- Log P [3]: 0.842
- GI50 (NIH3T3): 3.5 µM

From article PMC9861386, “N-Heterocyclic Carbene-Iridium Complexes as Photosensitizers for In Vitro Photodynamic Therapy to Trigger Non-Apoptotic Cell Death in Cancer Cells” (Molecules, 2023)
